Here are results for 1 molecule from US11439631B2, “Use of a glutarimide derivative to treat diseases related to the aberrant activity of cytokines” (“CHEMIMMUNE THERAPEUTICS” LIMITED LIABILITY COMPANY, priority 2017, dated 2022).

Experiment [1] deals with macrophage chemotaxis (thioglycolate peritonitis). The experiment is described as follows: Macrophage chemotaxis to the site of inflammation (thioglycolate peritonitis) in mice. Type of experiment: in vivo, male Balb/c mice. As to the method:
The induction of macrophage chemotaxis to the site of inflammation (thioglycolate peritonitis) in mice were performed according to the standard procedure [J Leukoc Biol. 2009. V. 86.(2). P. 361-370]. Male Balb/c mice were intraperitoneally administered with 2 ml of 3% thioglycolic medium stored for 1 month. The preparation of thioglycolic medium was carried out as follows: 15 g of dry thioglycolic medium was stirred in 500 ml of distilled water, was boiled at 100° C. for 2 minutes, was filtered through a paper filter, was poured out by 50 ml in sterile tubes and was sterilized by autoclaving at 121° C. for 15 minutes. […]
After 72 hours, the animals were euthanized in a CO2-chamber and the peritoneum area was wetted with 70% alcohol, the skin on the abdominal cavity was carefully cut off, and 5 ml of a cold phosphate-saline buffer containing 0.1% of ethylenediamine tetraacetic acid was injected intraperitoneally with a syringe. After gentle massage of the abdominal cavity, the exudate was collected by a syringe into tubes, and the volume of the collected exudate was determined.
Smears were prepared from the cell pellet, which smears were further fixed in methanol (5 minutes) and stained by Romanowsky-Giemsa (40 min at 20-22° C.). On the smears, under the microscope Olympus bx51 (at magnification 100) the quantity of monocytes/macrophages was counted by the routine method. […]

In experiment [2] the test system is acetic acid-induced abdominal constrictions. The experiment is described as follows: Specific pain reaction by chemical stimulation of peritoneum (abdominal constriction test). To be noted: 30 mg/kg intragastric, M ± m, n = 12. It is filed as in vivo, Balb/c mice. As to the method:
The model of the specific pain reaction by the method of chemical stimulation of peritoneum (“abdominal constriction” test) was carried out according to the standard procedure. To conduct the “abdominal constriction” test, Balb/c mice were intraperitoneally administered with 1% acetic acid in a volume of 10 ml per kg of the animal body weight. The test compound was administered intragastrically, once, 1 or 2 hour(s) before the administration of acetic acid. A quantity of constrictions (convulsive twitching of the abdominal muscles accompanied with stretching hind quarters and arching) was evaluated 15 minutes after the administration of acetic acid.

Experiment [3] concerns neutrophil and macrophage chemotaxis (carrageenan pouch). The experiment is described as follows: Macrophage and neutrophil chemotaxis model to the site of inflammation (carrageenan pouch) in mice. Type of experiment: in vivo, female Balb/c mice. As to the method:
The induction of macrophages and neutrophils chemotaxis to the site of inflammation (carrageenan pouch) in mice was tested according to the standard procedure [Curr Protoc Pharmacol. 2012. V. 5. P. 5-6]. […] After 3 days to maintain the integrity of the air pouch without increasing the wound, 2.5 ml of air was introduced at the same site. On day 6 under CO2 anesthesia to induce inflammation, 1 ml of 1% carrageenan solution prepared in physiological saline was administered directly into the pouch. The test compound was administered intragastrically 1 hour before the administration of carrageenan and then every 10-12 hours in the volume of 0.1 ml. The last administration is 12 hours before the slaughter. Euthanasia by the inhalation of CO2 was performed 48 hours after the carrageenan injection. Immediately after the euthanasia, 1 ml of physiological saline containing 5.4 mM of EDTA of room temperature was introduced into the pouch with a sterile syringe. After gentle massage of the region of the air pouch, a sagittal incision was made across the pouch and exudate was collected by a dispenser. After the centrifugation of the exudate from the cell pellet, smears were prepared, which were then fixed in methanol and were stained by Romanowsky-Giemsa. A quantity of macrophages and neutrophils was then determined on the smears under a microscope. The cell calculation was made up to 100 pcs.

[4] abbreviates: 30 mg/kg intragastric, 48 hours after carrageenan, M ± m, n = 10.

With `O=C1CCCC(=O)N1CCc1cnc[nH]1` [Compound 1, 1-(2-(1H-imidazol-4-yl)ethyl)piperidine-2,6-dione], the “Macrophages in peritoneal exudate” value in experiment [1] (30 mg/kg intragastric, 72 hours after thioglycolate) is reported as 0.84 ± 0.16 & ×10^9/l. Also, the “Quantity of macrophages in the peritoneal exudate” value in experiment [1] (intragastric administration) is reported as “to the level of intact animals”. For the same molecule, the “Quantity of constrictions for 15 minutes” value in experiment [2] (1 hour before the administration of acetic acid) is 23.8 ± 3.7. Besides, in experiment [2] (2 hour before the administration of acetic acid), the “Quantity of constrictions for 15 minutes” value stood at 22.7 ± 2.6. For the same molecule, in experiment [3] (setting [4]), the “Macrophages in the exudate from the carrageenan pouch” value is on record as 0.6 ± 0.2 & ×10^9/l and the “Neutrophils in the exudate from the carrageenan pouch” value is given as 0.6 ± 0.1 & ×10^9/l. Besides, the “Quantity of neutrophils and macrophages in the pouch cavity” value in experiment [3] (intragastric administration) was “to the level of intact animals”.
